# Laboratory results published in US10017492B2 (KANGPU BIOPHARMACEUTICALS, LTD., priority 2014, dated 2018).
# Like-named read-outs stand apart in the source and are kept apart here.
# Key:
# TNF-α = TNF-α activity inhibiting assay (LPS-stimulated peripheral blood, ELISA); assay type: cell-based, human; conditions: compound 100 nM, diluted peripheral blood of healthy volunteers, LPS 10 ng/mL, 6 hours; for inhibition at 0.1 µM: Homo sapiens, read-out: Inhibitory Rate on TNF-α (%)
# Protocol: TNF-α Activity Inhibiting Assay
# Peripheral blood from healthy volunteers was collected and collected with EDTA anticoagulant tubes. After being diluted 5-fold with 1640 medium (Gibco, catalog number 11875-093, USA), the blood was added to 96-well cell culture plates (Costar, catalog number 3599, USA) and then treated with 10 μL solution of the compound of general formula (I) of the present invention in DMSO (Sigma, catalog number D2650, USA). The final concentration of the compound was 100 nM, and the final concentration of DMSO was 0.2%. After incubation for 60 minutes in an incubator at 37° C. under 5% CO2, 10 μL LPS (Sigma, catalog number L-2880, USA) was added to the reaction system, and the final concentration was 10 ng/mL. After further culturing for 6 hours in the incubator at 37° C. under 5% CO2, the supernatant was collected. The content of TNF-α was determined by ELISA (BD Biosciences, catalog number 555212, USA). Absorbance was detected at OD450 nm with a microplate reader, with OD 650 nm as reference. The control, a solution containing 0.2% DMSO medium, was as 0% inhibition. Raw data and standard curves were recorded. The four-parameter drug inhibition curve was plotted by XL-fit software and the inhibition rate of each compound was calculated, as shown in Table 1.
# [1] = test system: MM.1S cells (myeloma cells); test: Cell proliferation assay (MTS), MM.1S myeloma cells; assay type: cell-based; conditions: 72 hours, read-out: IC50 values of MMIS Inhibition
# Protocol: MM.1S cells (myeloma cells) (ATCC, catalog number CRL-2974) were seeded at 1.8×10^3 per well to a 96-well culture plate containing […] (Gibco, catalog number A10491-01), and were incubated in an incubator for 24 hours at 37° C. under 5% CO2. Compounds were prepared as 20 mM stock solutions with DMSO (Sigma, catalog number D2650), and were diluted with the medium to the desired concentration (the final concentration of DMSO was 0.5%) and then were added to each well, incubated in an incubator for 72 hours at 37° C. under 5% CO2. Then, 20 μL MTS (Promega, catalog number G3581) was added to each well, and further incubated for 1-4 hours in an incubator at 37° C. under 5% CO2. OD490 nm was detected with OD650 nm as reference. The control, a solution containing 0.5% DMSO medium, was as 0% inhibition. GraphPad Prism 5 was used, slope was allowed to change to make the dose-effect curve and IC50 values were calculated, shown in table 2 for details.
SMILES,inhibition at 0.1 µM (TNF-α) [%],"IC50 ([1]; Homo sapiens, MM1.S) [nM]",Inhibitory Rate on TNF-α (%) (TNF-α),IC50 [1] [nM]
"CNC(=O)Oc1ccc(F)c(CNc2cccc3c2CN(C2CCC(=O)NC2=O)C3=O)c1 (centres unmarked) [Compound A371, 3-(((2-(2,6-Dioxopiperidin-3-yl)-1-oxoisoindolin-4-yl)amino)methyl)-4-fluorophenyl methylcarbamate]",≥ 50,< 300,,
"CNc1cccc(CNc2cccc3c2CN(C2CCC(=O)NC2=O)C3=O)c1F (centres unmarked) [Compound A372, 3-(4-((2-fluoro-3-(methylamino)benzyl)amino)-1-oxoisoindolin-2-yl)piperidine-2,6-dione]",≥ 50,< 300,,
"[2H][C@]1(N2Cc3c(NCc4ccc(CN5CCOCC5)cc4)cccc3C2=O)CCC(=O)NC1=O [Compound A373, (S)-3-deuterium-3-(4-((4-(morpholinomethyl)benzyl)amino)-1-oxoisoindolin-2-yl)piperidine-2,6-dione]",≥ 50,< 300,,
"O=C1CCC(N2Cc3c(NCc4cc(OCCOC(=O)N5CCCC5)ccc4F)cccc3C2=O)C(=O)N1 (centres unmarked) [Compound A374, 2-(3-(((2-(2,6-dioxopiperidin-3-yl)-1-oxoisoindolin-4-yl)amino)methyl)-4-fluorophenoxy)ethyl pyrrolidine-1-carboxylate]",≥ 50,< 300,,
"O=C1CCC(N2Cc3c(NCc4cc(OCCO)ccc4F)cccc3C2=O)C(=O)N1 (centres unmarked) [Compound A375, 3-(4-((2-fluoro-5-(2-hydroxyethoxy)benzyl)amino)-1-oxoisoindolin-2-yl)piperidine-2,6-dione]",< 50,≥ 300,,
"O=C1CCC(N2Cc3c(NCc4cc(OCCN5CCCC5)ccc4F)cccc3C2=O)C(=O)N1 (centres unmarked) [Compound A376, 3-(4-((2-fluoro-5-(2-(pyrrolidin-1-yl)ethoxy)benzyl)amino)-1-oxoisoindolin-2-yl)piperidine-2,6-dione]",≥ 50,< 300,,
"CN1CCN(CCOc2ccc(F)c(CNc3cccc4c3CN(C3CCC(=O)NC3=O)C4=O)c2)CC1 (centres unmarked) [Compound A377, 3-(4-((2-fluoro-5-(2-(4-methylpiperazin-1-yl)ethoxy)benzyl)amino)-1-oxoisoindolin-2-yl)piperidine-2,6-dione]",< 50,≥ 300,,
"CN(C)C(=O)Oc1ccc(F)c(CNc2cccc3c2CN(C2CCC(=O)NC2=O)C3=O)c1 (centres unmarked) [Compound A378, 3-(((2-(2,6-dioxopiperidin-3-yl)-1-oxoisoindolin-4-yl)amino)methyl)-4-fluorophenyl dimethylcarbamate]",< 50,≥ 300,,
"[2H][C@]1(N2Cc3c(OCc4cc(OC)ccc4F)cccc3C2=O)CCC(=O)NC1=O [Compound A379, (S)-3-deuterium-3-(4-((2-fluoro-5-methoxybenzyl)oxy)-1-oxoisoindolin-2-yl)piperidine-2,6-dione]",< 50,< 300,,
"[2H][C@]1(N2Cc3c(OCc4cccc(OC)c4F)cccc3C2=O)CCC(=O)NC1=O [Compound A380, (S)-3-deuterium-3-(4-((2-fluoro-3-methoxybenzyl)oxy)-1-oxoisoindolin-2-yl)piperidine-2,6-dione]",< 50,< 300,,
"Nc1cccc(CNc2cccc3c2CN(C2CCC(=O)NC2=O)C3=O)c1F (centres unmarked) [Compound A384, 3-(4-((3-amino-2-fluorobenzyl)amino)-1-oxoisoindolin-2-yl)piperidine-2,6-dione]",≥ 50,< 300,,
"CNc1cccc(COc2cccc3c2CN(C2CCC(=O)NC2=O)C3=O)c1F (centres unmarked) [Compound A385, 3-(4-((2-fluoro-3-(methylamino)benzyl)oxy)-1-oxoisoindolin-2-yl)piperidine-2,6-dione]",≥ 50,< 300,,
"CNc1ccc(F)c(CNc2cccc3c2CN(C2CCC(=O)NC2=O)C3=O)c1 (centres unmarked) [Compound A387, 3-(4-((2-fluoro-5-(methylamino)benzyl)amino)-1-oxoisoindolin-2-yl)piperidine-2,6-dione]",≥ 50,< 300,,
"CC(=O)Nc1cccc(CNc2cccc3c2CN(C2CCC(=O)NC2=O)C3=O)c1F (centres unmarked) [Compound A388, N-(3-(((2-(2,6-dioxopiperidin-3-yl)-1-oxoisoindolin-4-yl)amino)methyl)-2-fluorophenyl)acetamide]",≥ 50,< 300,,
"NS(=O)(=O)c1cccc(CNc2cccc3c2CN(C2CCC(=O)NC2=O)C3=O)c1F (centres unmarked) [Compound A389, 3-(((2-(2,6-dioxopiperidin-3-yl)-1-oxoisoindolin-4-yl)amino)methyl)-2-fluorobenzenesulfonamide]",< 50,< 300,,
"CNc1ccc(F)c(COc2cccc3c2CN(C2CCC(=O)NC2=O)C3=O)c1 (centres unmarked) [Compound A390, 3-(4-((2-fluoro-5-(methylamino)benzyl)oxy)-1-oxoisoindolin-2-yl)piperidine-2,6-dione]",≥ 50,≥ 300,,
"Nc1ccc(F)c(CNc2cccc3c2CN(C2CCC(=O)NC2=O)C3=O)c1 (centres unmarked) [Compound A391, 3-(4-((5-amino-2-fluorobenzyl)amino)-1-oxoisoindolin-2-yl)piperidine-2,6-dione]",≥ 50,≥ 300,,
"[2H][C@@]1(N2Cc3c(OCc4ccc(OC)cc4F)cccc3C2=O)CCC(=O)NC1=O [Compound A392, (R)-3-deuterium-3-(4-((2-fluoro-4-methoxybenzyl)oxy)-1-oxoisoindolin-2-yl)piperidine-2,6-dione]",≥ 50,< 300,,
"[2H][C@]1(N2Cc3c(OCc4ccc(OC)cc4F)cccc3C2=O)CCC(=O)NC1=O [Compound A393, (S)-3-deuterium-3-(4-((2-fluoro-4-methoxybenzyl)oxy)-1-oxoisoindolin-2-yl)piperidine-2,6-dione]",< 50,< 300,,
"O=C1CCC(N2Cc3c(NCc4ccc(O)cc4F)cccc3C2=O)C(=O)N1 (centres unmarked) [Compound A396, 3-(4-((2-fluoro-4-hydroxybenzyl)amino)-1-oxoisoindolin-2-yl)piperidine-2,6-dione]",< 50,≥ 300,,
"O=C1CCC(N2Cc3c(OCc4cc(CN5CCOCC5)ccc4F)cccc3C2=O)C(=O)N1 (centres unmarked) [Compound A398, 3-(4-((2-fluoro-5-(morpholinomethyl)benzyl)oxy)-1-oxoisoindolin-2-yl)-piperidine-2,6-dione]",≥ 50,< 300,,
"[2H][C@]1(N2Cc3c(NCc4cc(CN5CCOCC5)ccc4F)cccc3C2=O)CCC(=O)NC1=O [Compound A401, (S)-3-deuterium-3-(4-((2-fluoro-5-(morpholinomethyl)benzyl)amino)-1-oxoisoindolin-2-yl)piperidine-2,6-dione]",≥ 50,< 300,,
"O=C1CCC(N2Cc3c(NCc4ccc(CN5CCOCC5)cc4)cc(F)cc3C2=O)C(=O)N1 (centres unmarked) [Compound A405, 3-(6-fluoro-4-((4-(morpholinomethyl)benzyl)amino)-1-oxoisoindolin-2-yl)piperidine-2,6-dione]",< 50,≥ 300,,
"[2H]C1(N2Cc3c(OCc4ccc(CN5CCOCC5)cc4F)cccc3C2=O)CCC(=O)NC1=O (centres unmarked) [Compound A425, 3-deuterium-3-(4-((2-fluoro-5-(morpholinomethyl)benzyl)oxy)-1-oxoisoindolin-2-yl)piperidine-2,6-dione]",,,≥50,< 300
[2H]C1(N2Cc3c(NCc4ccc(CN5CCOCC5)cc4F)cccc3C2=O)CCC(=O)NC1=O (centres unmarked) [Compound A426],,,≥50,< 300
